# Experimental data: patent US9255101B2 (BIOPROJECT, priority 2012, dated 2016)
# pIC50, pKi: −log10 of the molar value. Like-named read-outs stand apart in the source and are kept apart here.
# How the values were obtained:
# human H4 receptor [1] = biological target: T1, human H4 receptor (Homo sapiens, UniProt Q9H3N8);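 as to pIC50: membranes from SH-SY5Y cells with stable human H4 receptor expression, incubated with GDP 10 µM, radioactivity retained on filters counted by liquid scintillation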;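 as to pKi: radioligand displacement of a [3H]-labelled ligand from membranes of CHO cells stably expressing human H4 receptor, bound radioactivity counted on filters by liquid scintillation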
# human H4 receptor [2] = biological target: T1, human H4 receptor; remark: listed apart in the source
# human H4 receptor [3] = biological target: T1, human H4 receptor; experiment: biochemical
# human H4 receptor [4] = biological target: T1, human H4 receptor; experiment: biochemical; remark: listed apart in the source
Molecule,pIC50 (human H4 receptor [1]),pKi (human H4 receptor [2]),melting point [°C],pIC50 (human H4 receptor [3]),pKi (human H4 receptor [4])
"CN1CCC(OC2c3ccccc3CCn3cc(C#Cc4cccnc4)nc32)CC1 (stereo not shown) [Example 63, 4-(1-methylpiperidin-4-yloxy)-2-pyridin-3-ylethynyl-9,10-dihydro-4H-3,10a-diaza-benzo[f]azulene]",,> 6.00,,,
"Cc1c(-c2ccccc2F)nc2n1CCc1ccccc1C2OC1CCN(C)CC1 (stereo not shown) [Example 142, 2-(2-fluorophenyl)-1-methyl-4-(1-methylpiperidin-4-yloxy)-9,10-dihydro-4H-3,10a-diaza-benzo[f]azulene]",,,68,> 7.52,> 6.52
"Cc1cccc(-c2nc3n(c2C)CCc2ccccc2C3OC2CCN(C)CC2)c1 (stereo not shown) [Example 144, 1-methyl-4-(1-methylpiperidin-4-yloxy)-2-m-tolyl-9,10-dihydro-4H-3,10a-diaza-benzo[f]azulene]",,,66,> 7.52,> 7.52
"Cc1c(-c2ccccc2Cl)nc2n1CCc1ccccc1C2OC1CCN(C)CC1 (stereo not shown) [Example 146, 2-(2-chlorophenyl)-1-methyl-4-(1-methylpiperidin-4-yloxy)-9,10-dihydro-4H-3,10a-diaza-benzo[f]azulene]",,,78,> 7.52,> 7.52
"COc1cccc(-c2nc3n(c2C)CCc2ccccc2C3OC2CCN(C)CC2)c1 (stereo not shown) [Example 150, 2-(3-methoxyphenyl)-1-methyl-4-(1-methypiperidin-4-yloxy)-9,10-dihydro-4H-3,10a-diaza-benzo[f]azulene]",,,138,> 7.52,> 7.52
"Cc1c(-c2ccc(NS(=O)(=O)C3CC3)cc2)nc2n1CCc1ccccc1C2OC1CCN(C)CC1 (stereo not shown) [Example 187, 4-[1-methyl-4-(1-methylpiperidin-4-yloxy)-9,10-dihydro-4H-3,10a-diaza-benzo[f]azulen-2-yl]-phenyl-cyclopropanesulfonamide]",> 6.52,> 6.52,,,
"CN1CCC(OC2c3ccccc3CCn3c2nc(-c2ccccc2)c3CO)CC1 (stereo not shown) [Example 257, [4-(1-methylpiperidin-4-yloxy)-2-phenyl-9,10-dihydro-4H-3,10a-diaza-benzo[f]azulen-1-yl]-methanol]",,,120,> 6.52,> 6.52

# Second part, the molecule after the results:
pIC50 (human H4 receptor [1]),pKi (human H4 receptor [2]),melting point [°C],pIC50 (human H4 receptor [3]),pKi (human H4 receptor [4]),Molecule
> 6.52,> 6.52,,,,"4-(1-methylpiperidin-4-yloxy)-2-phenylethynyl-9,10-dihydro-4H-3,10a-diaza-benzo[f]azulene [Example 34]"
> 6.52,> 6.52,,,,"Cc1ccc(-c2cn3c(n2)C(OC2CCN(C)CC2)c2ccccc2CC3)s1 (stereo not shown) [Example 96, 4-(1-methylpiperidin-4-yloxy)-2-(5-methylthiophen-2-yl)-9,10-dihydro-4H-3,10a-diaza-benzo[f]azulene]"
,,132,> 7.52,> 7.52,"Cc1c(-c2cccc(F)c2)nc2n1CCc1ccccc1C2OC1CCN(C)CC1 (stereo not shown) [Example 143, 2-(3-fluorophenyl)-1-methyl-4-(1-methylpiperidin-4-yloxy)-9,10-dihydro-4H-3,10a-diaza-benzo[f]azulene]"
,,72,> 7.52,> 7.52,"Cc1c(-c2cccc(Cl)c2)nc2n1CCc1ccccc1C2OC1CCN(C)CC1 (stereo not shown) [Example 145, 2-(3-chlorophenyl)-1-methyl-4-(1-methylpiperidin-4-yloxy)-9,10-dihydro-4H-3,10a-diaza-benzo[f]azulene]"
,,74,> 7.52,> 7.52,"Cc1ccccc1-c1nc2n(c1C)CCc1ccccc1C2OC1CCN(C)CC1 (stereo not shown) [Example 147, 1-methyl-4-(1-methylpiperidin-4-yloxy)-2-o-tolyl-9,10-dihydro-4H-3,10a-diaza-benzo[f]azulene]"
,,185,> 7.52,> 7.52,"Cc1c(-c2ccc(C=CC(=O)OC(C)(C)C)cc2)nc2n1CCc1ccccc1C2OC1CCN(C)CC1 (stereo not shown) [Example 151, 3-{4-[1-methyl-4-(1-methylpiperidin-4-yloxy)-9,10-dihydro-4H-3,10a-diaza-benzo[f]azulen-2-yl]-phenyl}-acrylic acid tert-butyl ester]"
,,181,> 7.52,> 7.52,"Cc1ccc(-c2nc3n(c2C)CCc2ccccc2C3OC2CCN(C)CC2)cc1 (stereo not shown) [Example 153, 1-methyl-4-(1-methylpiperidin-4-yloxy)-2-p-tolyl-9,10-dihydro-4H-3,10a-diaza-benzo[f]azulene]"
,,164,> 7.52,> 7.52,"COc1ccc(-c2nc3n(c2C)CCc2ccccc2C3OC2CCN(C)CC2)cc1 (stereo not shown) [Example 156, 2-(4-methoxyphenyl)-1-methyl-4-(1-methylpiperidin-4-yloxy)-9,10-dihydro-4H-3,10a-diaza-benzo[f]azulene]"
